Holding throughout (type): cell-based
Experiment [1] deals with T1, TuGluCl3 (glutamate-gated chloride channel 3) (Tetranychus urticae, UniProt T1KFH0).
T1 construct: gene 107363680; homomeric WT TuGluCl3 receptor expressed in Xenopus laevis oocytes
T1 sequence (T1KFH0 36-542): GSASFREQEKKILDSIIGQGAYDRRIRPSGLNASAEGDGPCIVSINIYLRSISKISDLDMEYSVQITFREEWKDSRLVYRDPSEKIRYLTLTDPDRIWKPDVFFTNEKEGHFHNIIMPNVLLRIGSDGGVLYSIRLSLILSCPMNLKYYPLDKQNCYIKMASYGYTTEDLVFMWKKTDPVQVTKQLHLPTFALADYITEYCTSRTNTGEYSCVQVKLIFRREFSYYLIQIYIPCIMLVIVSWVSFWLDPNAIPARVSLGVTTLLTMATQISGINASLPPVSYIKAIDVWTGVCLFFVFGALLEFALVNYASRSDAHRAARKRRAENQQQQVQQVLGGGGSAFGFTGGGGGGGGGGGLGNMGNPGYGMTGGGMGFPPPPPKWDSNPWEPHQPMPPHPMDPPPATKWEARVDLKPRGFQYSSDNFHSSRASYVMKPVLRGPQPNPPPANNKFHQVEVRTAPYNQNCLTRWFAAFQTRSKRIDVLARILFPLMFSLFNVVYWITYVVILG
Nature of the experiment: two-electrode voltage clamp in Xenopus oocytes at […] (natural agonist). (Two-electrode voltage clamp is typically applied to oocytes expressing channels or transporters.)

The target of experiment [2] is T2, TuGluCl3 (glutamate-gated chloride channel 3) (Tetranychus urticae, UniProt T1KFH0, G326E).
T2 construct: gene 107363680; homomeric TuGluCl3 G326E receptor expressed in Xenopus laevis oocytes
The experiment is described as above.

In experiment [3] the target is T1, TuGluCl3 (glutamate-gated chloride channel 3). The experiment in a line: two-electrode voltage clamp in Xenopus oocytes; agonist, also potentiates glutamate currents.

As a reminder, the EC50 is the concentration needed to bring the measured effect to its halfway point.

For `N[C@@H](CCC(=O)O)C(=O)O` [L-glutamic acid], the “two-electrode voltage clamp in Xenopus oocytes at 500 μM (natural agonist)” value in experiment [1] and in experiment [2] was “both TuGluCl3 receptors showed clear responses to L-Glu” in each case.

Regarding `CC(C)OC(=O)C(O)(c1ccc(Br)cc1)c1ccc(Br)cc1` [bromopropylate], the EC50 in experiment [3] was 3.23 µM.

For the compound `CCOC(=O)C(O)(c1ccc(Cl)cc1)c1ccc(Cl)cc1` [chlorobenzilate], the EC50 in experiment [3] was determined as 2.78 µM.

For the compound `OC(c1ccc(Cl)cc1)(c1ccc(Cl)cc1)C(Cl)(Cl)Cl` [dicofol, 2,2,2-trichloro-1,1-bis(4-chlorophenyl)ethanol], the EC50 in experiment [3] turned out to be 3.58 µM.

For the origin of these results see article PMC10643420, “A glutamate-gated chloride channel as the mite-specific target-site of dicofol and other diphenylcarbinol acaricides” (Communications Biology, 2023).
